# The supplement of paper PMC11061612
# Assays:
# [1] = system: JHU-022 (Oral Cavity Carcinoma); assay: combination Emax (second highest fraction inhibited in the dose matrix, 72 h); higher = more inhibition; extreme values may be limits of the assay
# How it was run: (§1)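 Cell lines in DMEM/F12 or RPMI with 10% FBS were plated in 1536-well plates, held 24 hours at 37°C, 5% CO2, then given two-drug dose matrices for 72 hours (DMSO typically 0.2%). Viability was read by CellTiter-Glo 2.0 luminescence and scaled as inhibition from 0 (vehicle wells) to 1 (blank wells). Combination Emax is the second-highest inhibition in the matrix; Bliss excess is observed combination effect minus expected EA + EB − EA·EB, EA and EB being single-agent effects.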
# [2] = system: DMS-53 (Small Cell Lung Carcinoma); assay: as above
# How it was run: as §1
# WM1552C (Melanoma) = assay: as above
# How it was run: as §1
# [3] = system: A253 (Head and Neck Carcinoma); assay: as above
# How it was run: as §1
# IM-9 (Non-Cancerous) = assay: as above
# How it was run: as §1
# [4] = system: G-402 (Other Solid Carcinomas); assay: Bliss excess, mean over the matrix (fraction); higher = more synergy
# How it was run: as §1
# PEO1 (Ovarian Carcinoma) = assay: as above
# How it was run: as §1
# 769-P (Kidney Carcinoma) = assay: as above
# How it was run: as §1
# [5] = system: JHH-2 (Hepatocellular Carcinoma); assay: as above
# How it was run: as §1
# EW-7 (Ewing's Sarcoma) = assay: as above
# How it was run: as §1
# [6] = system: ESO26 (Esophageal Adenocarcinoma); assay: as above
# How it was run: as §1
# [7] = system: A253 (Head and Neck Carcinoma); assay: as above
# How it was run: as §1
# [8] = system: NCI-H441 (Lung Adenocarcinoma); assay: as above
# How it was run: as §1
# [9] = system: CESS (Acute Myeloid Leukemia); assay: as above
# How it was run: as §1
# [10] = system: NCI-H1651 (Lung Adenocarcinoma); assay: as above
# How it was run: as §1
# [11] = system: MHH-ES-1 (Ewing's Sarcoma); assay: as above
# How it was run: as §1
# [12] = system: UACC-812 (Breast Carcinoma); assay: as above
# How it was run: as §1
# [13] = system: CAL-27 (Oral Cavity Carcinoma); assay: as above
# How it was run: as §1
# [14] = system: KYSE-220 (Esophageal Squamous Cell Carcinoma); assay: as above
# How it was run: as §1
# KP-N-YN (Neuroblastoma) = assay: as above
# How it was run: as §1
# 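Wherever Bliss excess, mean over the matrix is given: after 72 h of two-drug dosing.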
SMILES,combination Emax [1],combination Emax [2],combination Emax (WM1552C (Melanoma)),combination Emax [3],combination Emax (IM-9 (Non-Cancerous)),Bliss excess [4],Bliss excess (PEO1 (Ovarian Carcinoma)),Bliss excess (769-P (Kidney Carcinoma)),Bliss excess [5],Bliss excess (EW-7 (Ewing's Sarcoma)),Bliss excess [6],Bliss excess [7],Bliss excess [8],Bliss excess [9],Bliss excess [10],Bliss excess [11],Bliss excess [12],Bliss excess [13],Bliss excess [14],Bliss excess (KP-N-YN (Neuroblastoma))
"Cn1cnc2c(F)c(Nc3ccc(Br)cc3Cl)c(C(=O)NOCCO)cc21 [Selumetinib] + CC(C)n1c(=O)n(C)c2cnc3cc(F)c(-c4ccc(OCCCN5CCCCC5)nc4)cc3c21 [AZD1390] (first compound max 10 µM, 7x7, partner max 0.3 µM)",0.497,0.132,0.384,0.18,0.796,-0.0095,-0.0118,0.0125,-0.0357,-0.0117,-0.0471,-0.0504,-0.0394,-0.0355,-0.0305,-0.0328,-0.0436,-0.0489,0.0022,-0.0171
"Cn1cnc2c(F)c(Nc3ccc(Br)cc3Cl)c(C(=O)NOCCO)cc21 [Selumetinib] + CCN(CCO)CCCOc1ccc2c(Nc3cc(CC(=O)Nc4cccc(F)c4)[nH]n3)ncnc2c1 [AZD2811] (first compound max 10 µM, 7x7, partner max 1 µM)",0.54,0.158,0.439,0.348,0.995,-0.0137,-0.0252,-0.0062,-0.0193,-0.0023,-0.0374,-0.018,-0.0565,0.0943,-0.0283,-0.0268,-0.049,-0.0921,0.036,0.0253
"Cn1cnc2c(F)c(Nc3ccc(Br)cc3Cl)c(C(=O)NOCCO)cc21 [Selumetinib] + C[C@@H]1COCCN1C2=NC(=NC(=C2)C3(CC3)[S@](=N)(=O)C)C4=C5C=CNC5=NC=C4 [AZD6738] (first compound max 10 µM, 7x7, partner max 10 µM)",0.567,0.151,0.59,0.636,0.981,-0.0353,-0.0357,-0.0122,0.0264,0.0112,-0.0189,-0.0229,0.0498,-0.0205,-0.0638,-0.046,-0.0397,0.0939,-0.0446,-0.0431
"CC(=O)Nc1cccc(-n2c(=O)n(C3CC3)c(=O)c3c(Nc4ccc(I)cc4F)n(C)c(=O)c(C)c32)c1 [Trametinib] + Cc1nc(-c2cn3c(n2)-c2ccc(-c4cnn(C(C)(C)C(N)=O)c4)cc2OCC3)n(C(C)C)n1 [Taselisib] (first compound max 1 µM, 7x7, partner max 10 µM)",0.903,0.294,0.908,0.954,0.941,0.0104,0.204,0.0182,-0.0221,0.0479,0.147,0.145,0.102,0.219,0.0354,0.0141,0.0522,0.128,0.152,0.0046
"CC1(C)CCC(CN2CCN(c3ccc(C(=O)NS(=O)(=O)c4ccc(NCC5CCOCC5)c([N+](=O)[O-])c4)c(Oc4cnc5[nH]ccc5c4)c3)CC2)=C(c2ccc(Cl)cc2)C1 [Venetoclax] + C1CN(CCC1(C(=O)N[C@@H](CCO)C2=CC=C(C=C2)Cl)N)C3=NC=NC4=C3C=CN4 [Capivasertib] (first compound max 1 µM, 7x7, partner max 3 µM)",0.359,0.361,0.469,0.463,0.632,-0.12,-0.0564,-0.0433,0.0139,-0.0149,-0.0751,-0.0084,-0.0707,-0.0707,-0.0184,-0.01,-0.0212,-0.0432,-0.0023,-0.0573
"CC1(C)CCC(CN2CCN(c3ccc(C(=O)NS(=O)(=O)c4ccc(NCC5CCOCC5)c([N+](=O)[O-])c4)c(Oc4cnc5[nH]ccc5c4)c3)CC2)=C(c2ccc(Cl)cc2)C1 [Venetoclax] + C=CCn1c(=O)c2cnc(Nc3ccc(N4CCN(C)CC4)cc3)nc2n1-c1cccc(C(C)(C)O)n1 [AZD1775] (first compound max 1 µM, partner max 1 µM)",0.388,0.694,0.785,0.313,0.992,-0.0625,-0.0325,-0.0081,0.0531,0.0406,-0.0373,0.0263,0.002,-0.0236,-0.0218,-0.001,-0.0681,-0.0321,-0.0321,0.0109
"CC1(C)CCC(CN2CCN(c3ccc(C(=O)NS(=O)(=O)c4ccc(NCC5CCOCC5)c([N+](=O)[O-])c4)c(Oc4cnc5[nH]ccc5c4)c3)CC2)=C(c2ccc(Cl)cc2)C1 [Venetoclax] + CCN(CCO)CCCOc1ccc2c(Nc3cc(CC(=O)Nc4cccc(F)c4)[nH]n3)ncnc2c1 [AZD2811] (first compound max 1 µM, 7x7, partner max 1 µM)",0.292,0.482,0.464,0.268,0.976,-0.0036,-0.0314,-0.0637,-0.038,-0.0227,-0.0262,0.046,-0.044,0.0083,0.0011,0.0824,-0.0283,-0.0302,0.0335,0.104
